Measurements published in paper PMC7488488 (Acta Pharmaceutica Sinica. B, 2019).

Tests used:
[1] = tested on: T98G cells; test: MTT cell proliferation assay; format: cell-based; settings: Homo sapiens, T98G, 24 h, read-out: Anti-proliferative activity IC50, T98G
[2] = tested on: U251 cells; test: MTT cell proliferation assay; format: cell-based; settings: Homo sapiens, U-251, 24 h, read-out: Anti-proliferative activity IC50, U251
[3] = tested on: U87MG cells; test: MTT cell proliferation assay; format: cell-based; settings: Homo sapiens, U-87 MG, 24 h, read-out: Anti-proliferative activity IC50, U87MG
[4] = target: MDM2 (Homo sapiens, UniProt Q00987); test: TR-FRET; format: binding; settings: for inhibition at 1 µM: read-out: Inhibition rate at 1.0 μmol/L, MDM2
Sequence of MDM2 (Q00987 whole entry): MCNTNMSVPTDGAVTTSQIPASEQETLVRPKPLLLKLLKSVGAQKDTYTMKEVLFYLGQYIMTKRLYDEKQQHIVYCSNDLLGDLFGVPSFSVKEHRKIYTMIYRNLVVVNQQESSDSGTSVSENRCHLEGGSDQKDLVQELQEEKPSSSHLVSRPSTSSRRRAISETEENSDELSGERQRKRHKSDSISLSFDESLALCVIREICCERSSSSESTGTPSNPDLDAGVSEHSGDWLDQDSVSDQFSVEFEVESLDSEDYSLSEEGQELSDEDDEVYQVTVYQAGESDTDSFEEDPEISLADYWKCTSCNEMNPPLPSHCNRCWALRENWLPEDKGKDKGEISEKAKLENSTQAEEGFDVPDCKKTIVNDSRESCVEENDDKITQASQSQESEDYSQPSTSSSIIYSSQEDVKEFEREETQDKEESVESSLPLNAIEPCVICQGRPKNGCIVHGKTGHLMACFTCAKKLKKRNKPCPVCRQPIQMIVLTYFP

SMILES | IC50 [1] | IC50 [2] | IC50 [3] | inhibition at 1 µM [4] | IC50 [4]
O=C(c1ccccc1)[C@H]1Cc2c(cc([N+](=O)[O-])cc2[N+](=O)[O-])[C@H](O)[C@]12C(=O)Nc1ccccc12 [4k′, (1′S,3S,3′S)-3′-Benzoyl-1′-hydroxy-5′,7′-dinitro-3′,4′-dihydro-1′H-spiro[indoline-3,2′-naphthalen]-2-one] | > 50 µM | > 50 µM | > 50 µM | 35.4% | –
CCOC(=O)[C@H]1Cc2c(cc([N+](=O)[O-])cc2[N+](=O)[O-])[C@@H](O)[C@@]12C(=O)Nc1cccc(Br)c12 [4f, Ethyl (1′R,3R,3′S)-4-bromo-1′-hydroxy-5′,7′-dinitro-2-oxo-3′,4′-dihydro-1′H-spiro[indoline-3,2′-naphthalene]-3′-carboxylate] | 27.2 ± 3 µM | 25.8 ± 4.2 µM | 20.7 ± 3.5 µM | 66.9 ± 9.1% | –
O=C(c1ccccc1F)[C@H]1Cc2c(cc([N+](=O)[O-])cc2[N+](=O)[O-])[C@H](O)[C@]12C(=O)Nc1ccccc12 [4l′, (1′S,3S,3′S)-3′-(2-Fluorobenzoyl)-1′-hydroxy-5′,7′-dinitro-3′,4′-dihydro-1′H-spiro[indoline-3,2′-naphthalen]-2-one] | > 50 µM | > 50 µM | > 50 µM | 31.6% | –
CCOC(=O)[C@H]1Cc2c(cc([N+](=O)[O-])cc2[N+](=O)[O-])[C@H](O)[C@]12C(=O)Nc1ccc([N+](=O)[O-])cc12 [4i′, Ethyl (1′S,3S,3′S)-1′-hydroxy-5,5′,7′-trinitro-2-oxo-3′,4′-dihydro-1′H-spiro[indoline-3,2′-naphthalene]-3′-carboxylate] | > 50 µM | > 50 µM | 47.9 µM | 39.3% | –
CCOC(=O)[C@H]1Cc2c(cc([N+](=O)[O-])cc2[N+](=O)[O-])[C@H](O)[C@]12C(=O)Nc1cc(Br)ccc12 [4h′, Ethyl (1′S,3S,3′S)-6-bromo-1′-hydroxy-5′,7′-dinitro-2-oxo-3′,4′-dihydro-1′H-spiro[indoline-3,2′-naphthalene]-3′-carboxylate] | > 50 µM | > 50 µM | 47.6 µM | 61.2% | –
CCOC(=O)[C@H]1Cc2c(cc([N+](=O)[O-])cc2[N+](=O)[O-])[C@H](O)[C@]12C(=O)Nc1ccc(F)cc12 [4b′, Ethyl (1′S,3S,3′S)-5-fluoro-1′-hydroxy-5′,7′-dinitro-2-oxo-3′,4′-dihydro-1′H-spiro[indoline-3,2′-naphthalene]-3′-carboxylate] | > 50 µM | > 50 µM | > 50 µM | 55.6% | –
O=C(c1ccc(Cl)c(Cl)c1)[C@H]1Cc2c(cc([N+](=O)[O-])cc2[N+](=O)[O-])[C@H](O)[C@]12C(=O)Nc1ccccc12 [4n′, (1′S,3S,3′S)-3′-(3,4-Dichlorobenzoyl)-1′-hydroxy-5′,7′-dinitro-3′,4′-dihydro-1′H-spiro[indoline-3,2′-naphthalen]-2-one] | > 50 µM | > 50 µM | > 50 µM | 36.3% | –
CCOC(=O)[C@H]1Cc2c(cc([N+](=O)[O-])cc2[N+](=O)[O-])[C@@H](O)[C@@]12C(=O)Nc1ccc(C)cc12 [4j, Ethyl (1′R,3R,3′S)-1′-hydroxy-5-methyl-5′,7′-dinitro-2-oxo-3′,4′-dihydro-1′H-spiro[indoline-3,2′-naphthalene]-3′-carboxylate] | 39.3 ± 3.6 µM | 38.9 ± 4.5 µM | 31.1 ± 1.76 µM | 64.4 ± 7.2% | –
CCOC(=O)[C@H]1Cc2c(cc([N+](=O)[O-])cc2[N+](=O)[O-])[C@H](O)[C@]12C(=O)Nc1c(F)cccc12 [4c′, Ethyl (1′S,3S,3′S)-7-fluoro-1′-hydroxy-5′,7′-dinitro-2-oxo-3′,4′-dihydro-1′H-spiro[indoline-3,2′-naphthalene]-3′-carboxylate] | > 50 µM | > 50 µM | 59.9 µM | 45.3% | –
CCOC(=O)[C@H]1Cc2c(cc([N+](=O)[O-])cc2[N+](=O)[O-])[C@@H](O)[C@@]12C(=O)Nc1ccc(Cl)cc12 [4d, Ethyl (1′R,3R,3′S)-5-chloro-1′-hydroxy-5′,7′-dinitro-2-oxo-3′,4′-dihydro-1′H-spiro[indoline-3,2′-naphthalene]-3′-carboxylate] | 21.6 ± 4.5 µM | 17.8 ± 3.2 µM | 8.3 ± 1.5 µM | 82.6 ± 8.4% | 0.52 ± 0.07 µM
O=C(c1ccc(Cl)c(Cl)c1)[C@H]1Cc2c(cc([N+](=O)[O-])cc2[N+](=O)[O-])[C@@H](O)[C@@]12C(=O)Nc1ccccc12 [4n, (1′R,3R,3′S)-3′-(3,4-Dichlorobenzoyl)-1′-hydroxy-5′,7′-dinitro-3′,4′-dihydro-1′H-spiro[indoline-3,2′-naphthalen]-2-one] | 32.5 ± 2.9 µM | 25.9 ± 3.5 µM | 34.9 ± 2.62 µM | 38.4 ± 2.7% | –
O=C(c1ccc(Br)cc1)[C@H]1Cc2c(cc([N+](=O)[O-])cc2[N+](=O)[O-])[C@H](O)[C@]12C(=O)Nc1ccccc12 [4o′, (1′S,3S,3′S)-3′-(4-Bromobenzoyl)-1′-hydroxy-5′,7′-dinitro-3′,4′-dihydro-1′H-spiro[indoline-3,2′-naphthalen]-2-one] | > 50 µM | > 50 µM | > 50 µM | 29% | –
O=C(c1ccccc1)[C@H]1Cc2c(cc([N+](=O)[O-])cc2[N+](=O)[O-])[C@@H](O)[C@@]12C(=O)Nc1ccccc12 [4k, (1′R,3R,3′S)-3′-Benzoyl-1′-hydroxy-5′,7′-dinitro-3′,4′-dihydro-1′H-spiro[indoline-3,2′-naphthalen]-2-one] | 43.7 ± 6.6 µM | 53.8 ± 9 µM | 38.7 ± 6.5 µM | 46.4 ± 4.9% | –
CCOC(=O)[C@H]1Cc2c(cc([N+](=O)[O-])cc2[N+](=O)[O-])[C@@H](O)[C@@]12C(=O)Nc1ccc(Br)cc12 [4g, Ethyl (1′R,3R,3′S)-5-bromo-1′-hydroxy-5′,7′-dinitro-2-oxo-3′,4′-dihydro-1′H-spiro[indoline-3,2′-naphthalene]-3′-carboxylate] | 9.5 ± 0.7 µM | 8.6 ± 0.6 µM | 4.9 ± 0.5 µM | 92.3 ± 11.2% | 0.28 ± 0.06 µM
COc1ccc(C(=O)[C@H]2Cc3c(cc([N+](=O)[O-])cc3[N+](=O)[O-])[C@H](O)[C@]23C(=O)Nc2ccccc23)cc1 [4p′, (1′S,3S,3′S)-1′-Hydroxy-3′-(4-methoxybenzoyl)-5′,7′-dinitro-3′,4′-dihydro-1′H-spiro[indoline-3,2′-naphthalen]-2-one] | > 50 µM | > 50 µM | > 50 µM | 26.9% | –
CCOC(=O)[C@H]1Cc2c(cc([N+](=O)[O-])cc2[N+](=O)[O-])[C@@H](O)[C@@]12C(=O)Nc1cc(Br)ccc12 [4h, Ethyl (1′R,3R,3′S)-6-bromo-1′-hydroxy-5′,7′-dinitro-2-oxo-3′,4′-dihydro-1′H-spiro[indoline-3,2′-naphthalene]-3′-carboxylate] | 14.4 ± 2.8 µM | 18.3 ± 1.5 µM | 20.4 ± 3.3 µM | 76.7 ± 5.2% | –
CCOC(=O)[C@H]1Cc2c(cc([N+](=O)[O-])cc2[N+](=O)[O-])[C@@H](O)[C@@]12C(=O)Nc1c(F)cccc12 [4c, Ethyl (1′R,3R,3′S)-7-fluoro-1′-hydroxy-5′,7′-dinitro-2-oxo-3′,4′-dihydro-1′H-spiro[indoline-3,2′-naphthalene]-3′-carboxylate] | 51.6 ± 6.2 µM | 34.3 ± 4 µM | 19.4 ± 2.3 µM | 76.5 ± 13.7% | –
O=C(c1ccc(F)cc1)[C@H]1Cc2c(cc([N+](=O)[O-])cc2[N+](=O)[O-])[C@H](O)[C@]12C(=O)Nc1ccccc12 [4m′, (1′S,3S,3′S)-3′-(4-Fluorobenzoyl)-1′-hydroxy-5′,7′-dinitro-3′,4′-dihydro-1′H-spiro[indoline-3,2′-naphthalen]-2-one] | > 50 µM | > 50 µM | > 50 µM | 36.2% | –
CCOC(=O)[C@H]1Cc2c(cc([N+](=O)[O-])cc2[N+](=O)[O-])[C@H](O)[C@]12C(=O)Nc1cccc(Br)c12 [4f′, Ethyl (1′S,3S,3′S)-4-bromo-1′-hydroxy-5′,7′-dinitro-2-oxo-3′,4′-dihydro-1′H-spiro[indoline-3,2′-naphthalene]-3′-carboxylate] | > 50 µM | > 50 µM | 69.8 µM | 54.8% | –
CCOC(=O)[C@H]1Cc2c(cc([N+](=O)[O-])cc2[N+](=O)[O-])[C@H](O)[C@]12C(=O)Nc1ccc(Cl)cc12 [4d′, Ethyl (1′S,3S,3′S)-5-chloro-1′-hydroxy-5′,7′-dinitro-2-oxo-3′,4′-dihydro-1′H-spiro[indoline-3,2′-naphthalene]-3′-carboxylate] | > 50 µM | > 50 µM | 60.4 µM | 54.2% | 1.8 ± 0.12 µM
CCOC(=O)[C@H]1Cc2c(cc([N+](=O)[O-])cc2[N+](=O)[O-])[C@H](O)[C@]12C(=O)Nc1ccc(Br)cc12 [4g′, Ethyl (1′S,3S,3′S)-5-bromo-1′-hydroxy-5′,7′-dinitro-2-oxo-3′,4′-dihydro-1′H-spiro[indoline-3,2′-naphthalene]-3′-carboxylate] | > 50 µM | > 50 µM | > 50 µM | 51.9% | 2.5 ± 0.3 µM
CCOC(=O)[C@H]1Cc2c(cc([N+](=O)[O-])cc2[N+](=O)[O-])[C@@H](O)[C@@]12C(=O)Nc1ccc([N+](=O)[O-])cc12 [4i, Ethyl (1′R,3R,3′S)-1′-hydroxy-5,5′,7′-trinitro-2-oxo-3′,4′-dihydro-1′H-spiro[indoline-3,2′-naphthalene]-3′-carboxylate] | 41.2 ± 6.1 µM | 36.2 ± 4.6 µM | 25.6 ± 2.8 µM | 47.7 ± 4.1% | –
O=C(c1ccc(F)cc1)[C@H]1Cc2c(cc([N+](=O)[O-])cc2[N+](=O)[O-])[C@@H](O)[C@@]12C(=O)Nc1ccccc12 [4m, (1′R,3R,3′S)-3′-(4-Fluorobenzoyl)-1′-hydroxy-5′,7′-dinitro-3′,4′-dihydro-1′H-spiro[indoline-3,2′-naphthalen]-2-one] | 37.1 ± 3.2 µM | 39.5 ± 3.8 µM | 47.2 ± 3.8 µM | 44.6 ± 3.7% | –
